# Laboratory results published in patent publication US8293979B2, “Weed controller metabolism proteins, genes, thereof and use of the same” (Sumitomo Chemical Company, Limited, priority 2001, dated 2012).
# Experiments:
# [1] = system: leaf pieces derived from the tobacco to which the present invention DNA (A1) was introduced; assay: Herbicidal damage of tobacco leaf pieces on MS agar medium containing compound (II); type: cell-based, Nicotiana tabacum strain SR1; details: MS agar medium containing 0.1 mg/L of compound (II), in the light at room temperature, 7th day of culturing
# Protocol: Then, according to the method described in Manual for Gene Manipulation of Plant (by Hirofumi UCHIMIYA, Kodan-sha Scientific, 1992), the gene was introduced into tobacco. Agrobacterium strains bearing the above plasmids were each cultured at 28° C. overnight in LB medium containing 300 mg/L streptomycin, 100 mg/L rifampicin and 25 mg/L kanamycin, and then leaf pieces of tobacco (Nicotiana tabacum strain SR1) cultured sterilely were dipped in the liquid culture medium. The leaf pieces were planted and cultured at room temperature for 2 days in the light in MS agar medium (MS inorganic salts, MS vitamins, 3% sucrose and 0.8% agar; described in Murashige T. and Skoog F., Physiol. Plant. (1962) 15, p 473) containing 0.1 mg/L of naphthalene acetic acid and 1.0 mg/L of benzyl aminopurine. Then, the leaf pieces were washed with sterilized water and cultured for 7 days on MS agar medium containing 0.1 mg/L of naphthalene acetic acid, 1.0 mg/L of benzyl aminopurine and 500 mg/L of cefotaxime. Next, the leaf pieces were transplanted and cultured in MS agar medium containing 0.1 mg/L of naphthalene acetic acid, 1.0 mg/L of benzyl aminopurine, 500 mg/L of cefotaxime and 100 mg/L of kanamycin. The culture was conducted continuously for 4 months while transplanting the leaf pieces to fresh medium of the same composition at intervals of 4 weeks. […]
# [2] = system: leaf pieces derived from the tobacco to which the present invention DNA (A2) was introduced; assay: as above; type: cell-based; details: MS agar medium containing 0.1 mg/L of compound (II), in the light at room temperature, 7th day of culturing
# Source text: Leaf pieces of sterily cultured tobacco were infected with each of the agrobacterium strain bearing pBI-NdG6-rSt-923 and the agrobacterium strain bearing pBI-NdG6-rSt12-923. Tobaccos in which the present invention DNA (A2) has been introduced were obtained under the procedures similar to the methods described in Example 19.
# Three (3) leaves were taken from the obtained transgenic tobacco. Each leaf was divided into 4 pieces in which each piece was 5 to 7 mm wide. Each of the leaf pieces were planted onto MS agar medium containing 0.1 mg/L of compound (II) and cultured in the light at room temperature. On the 7th day of culturing, the herbicidal damage of each of the leaf pieces was observed.
# [3] = system: present invention protein (A13); assay: Detection of the ability to convert compound (II) to compound (III), E. coli pKSN474F extract; type: in vitro ADME, Streptomyces thermocoerulesces IFO 14273t; details: 3 ppm of compound (II) labeled with 14C, components A, B, 10 minutes at 30° C.
# Protocol: (§1) Reaction solutions of 30 μl were prepared and maintained for 10 minutes at 30° C. The reaction solutions consisted of a 0.1M potassium phosphate buffer (pH7.0) containing 3 ppm of compound (II) labeled with ^14C, 2 mM of β-NADPH (hereinafter, referred to as “component A”) (Oriental Yeast Company), 2 mg/ml of a ferredoxin derived from spinach (hereinafter referred to as “component B”) (Sigma Company), 0.1 U/ml of ferredoxin reductase (hereinafter, referred to as “component C”) (Sigma Company) and 23 μl of the supernatant fraction recovered in Example 32(2). Similarly to Example 4(3), the reaction solutions after the maintenance were extracted with ethyl acetate and the extracted layers were TLC analyzed. […] A spot corresponding to compound (III) was detected from the reaction solution containing E. coli pKSN849AF extract. In contrast, such a spot was not detected from the reaction solution containing E. coli pKSN2 extract.
# (§2) Reaction solutions of 30 μl were prepared and maintained for 10 minutes at 30° C. […] The reaction solutions after the maintenance were extracted with ethyl acetate and the extracted layers were TLC analyzed. […] A spot corresponding to compound (III) was detected from the reaction solution containing E. coli pKSN474F extract. In contrast, such a spot was not detected from the reaction solution containing E. coli pKSN2 extract.
# [4] = system: present invention protein (A23); assay: Detection of the ability to convert compound (II) to compound (III), E. coli pKSN1584F extract; type: in vitro ADME, Streptomyces roseorubens IFO 13682T; details: 3 ppm of compound (II) labeled with 14C, components A, B, 10 minutes at 30° C.
# Protocol: as §1
# as §2, with “Similarly to Example 32(3), reaction” for “Reaction”, “pKSN1584F” for “pKSN474F”
# [5] = system: present invention protein (A25); assay: Detection of the ability to convert compound (II) to compound (III), E. coli pKSN1609F extract; type: in vitro ADME, Streptomyces steffisburgensis IFO 13446T; details: 3 ppm of compound (II) labeled with 14C, components A, B, 10 minutes at 30° C.
# Protocol: as §1
# as §2, with “Similarly to Example 32(3), reaction” for “Reaction”, “pKSN1609F” for “pKSN474F”
compound,measurement,setting,value
C[C@@H](Oc1cc(-n2c(=O)cc(C(F)(F)F)n(C)c2=O)c(F)cc1Cl)C(=O)O [compound (II)],herbicidal damage of the leaf pieces,[1],grew continuously
same,herbicidal damage of the leaf pieces,[2],grew continuously
same,spot corresponding to compound (III) labeled with 14C (TLC),[3],detected
same,spot corresponding to compound (III) labeled with 14C (TLC),[4],detected
same,spot corresponding to compound (III) labeled with 14C (TLC),[5],detected
